Assay results: the NIST ThermoML archive (doi:10.1021/je050165t)

Columns and labels:
[1] = xn = mol fraction of the nth substance listed; details: 101 kPa, Liquid
[2] = 101 kPa, Liquid

CCCCn1cc[n+](C)c1.F[P-](F)(F)(F)(F)F [1-butyl-3-methylimidazolium hexafluorophosphate] + CO
[1]
Details | mass density, 298.15 K [kg/m3] | mass density, 303.15 K [kg/m3] | mass density, 308.15 K [kg/m3] | mass density, 313.15 K [kg/m3] | mass density, 318.15 K [kg/m3] | speed of sound, 298.15 K [m/s] | speed of sound, 303.15 K [m/s] | speed of sound, 308.15 K [m/s] | speed of sound, 313.15 K [m/s] | speed of sound, 318.15 K [m/s]
x1 = 0.0223 | 852.499 | 847.778 | 843.039 | 838.277 | 833.49 | 1132.1 | 1116.9 | 1101.8 | 1086.7 | 1071.7
x1 = 0.0484 | 914.856 | 910.156 | 905.442 | 900.703 | 895.952 | 1155.5 | 1141.5 | 1127.5 | 1113.6 | 1099.7
x1 = 0.0786 | 972.943 | 968.272 | 963.583 | 958.877 | 954.071 | 1180.7 | 1167.7 | 1154.6 | 1141.6 | 1128.6
x1 = 0.1869 | 1111.37 | 1106.76 | 1102.15 | 1097.53 | 1092.91 | 1261.6 | 1249.8 | 1238 | 1226.1 | 1214.3
x1 = 0.2156 | 1136.5 | 1131.89 | 1127.3 | 1122.7 | 1118.12 | 1280.7 | 1268.9 | 1257.2 | 1245.5 | 1233.8
x1 = 0.3573 | 1223.91 | 1219.39 | 1214.87 | 1210.36 | 1205.87 | 1340.7 | 1329.1 | 1317.5 | 1306 | 1294.5
x1 = 0.4572 | 1263.6 | 1259.04 | 1254.81 | 1250.5 | 1246.03 | 1366.7 | 1355.1 | 1343.6 | 1332.1 | 1320.7
x1 = 0.6222 | 1308.96 | 1304.59 | 1300.24 | 1295.96 | 1291.78 | 1400.5 | 1388.9 | 1377.4 | 1365.9 | 1354.7
x1 = 0.7736 | 1337.5 | 1333.24 | 1328.99 | 1324.76 | 1320.54 | 1421.1 | 1409.5 | 1398 | 1386.6 | 1375.3
x1 = 0.9208 | 1357.7 | 1353.55 | 1349.39 | 1345.23 | 1341.08 | 1435.2 | 1423.5 | 1411.9 | 1400.6 | 1389.4
x1 = 1 | 1366.66 | 1362.4 | 1358.3 | 1354.19 | 1350.08 | 1442.4 | 1430.6 | 1419 | 1407.5 | 1396.3

CCCCn1cc[n+](C)c1.F[P-](F)(F)(F)(F)F [1-butyl-3-methylimidazolium hexafluorophosphate]
[2]
Details | mass density [kg/m3] | speed of sound [m/s]
298.15 K | 1366.66 | 1442.4
303.15 K | 1362.4 | 1430.6
308.15 K | 1358.3 | 1419
313.15 K | 1354.19 | 1407.5
318.15 K | 1350.08 | 1396.3

CO [methanol]
[2]
Details | mass density [kg/m3] | speed of sound [m/s]
298.15 K | 786.531 | 1102.7
303.15 K | 781.808 | 1086.4
308.15 K | 777.066 | 1070.1
313.15 K | 772.283 | 1054
318.15 K | 767.474 | 1037.9

CO [methanol] + CCCCn1cc[n+](C)c1.F[P-](F)(F)(F)(F)F
[1], x2 = 0
Details | mass density [kg/m3] | speed of sound [m/s]
298.15 K | 786.531 | 1102.7
303.15 K | 781.808 | 1086.4
308.15 K | 777.066 | 1070.1
313.15 K | 772.283 | 1054
318.15 K | 767.474 | 1037.9

CC#N [acetonitrile] + CCCCn1cc[n+](C)c1.F[P-](F)(F)(F)(F)F
[1], x2 = 0
Details | mass density [kg/m3] | speed of sound [m/s]
298.15 K | 776.533 | 1278.6
303.15 K | 771.116 | 1258.7
308.15 K | 765.66 | 1238.7
313.15 K | 760.162 | 1218.5
318.15 K | 754.462 | 1198.3

CCCCn1cc[n+](C)c1.F[P-](F)(F)(F)(F)F [1-butyl-3-methylimidazolium hexafluorophosphate] + CC#N
[1]
Details | mass density, 298.15 K [kg/m3] | mass density, 303.15 K [kg/m3] | mass density, 308.15 K [kg/m3] | mass density, 313.15 K [kg/m3] | mass density, 318.15 K [kg/m3] | speed of sound, 298.15 K [m/s] | speed of sound, 303.15 K [m/s] | speed of sound, 308.15 K [m/s] | speed of sound, 313.15 K [m/s] | speed of sound, 318.15 K [m/s]
x1 = 0.0453 | 878.471 | 873.235 | 866.821 | 862.713 | 857.428 | 1293.5 | 1275.1 | 1256.7 | 1238.4 | 1220.2
x1 = 0.0935 | 959.103 | 954.02 | 948.924 | 943.817 | 938.706 | 1308.9 | 1291.8 | 1274.6 | 1257.5 | 1240.5
x1 = 0.2007 | 1085.08 | 1080.25 | 1075.41 | 1070.58 | 1065.76 | 1341.9 | 1326.2 | 1310.9 | 1295.8 | 1280.9
x1 = 0.2966 | 1159.89 | 1155.23 | 1150.56 | 1145.9 | 1141.24 | 1366.5 | 1352.2 | 1338.1 | 1324 | 1310
x1 = 0.4241 | 1228.44 | 1223.91 | 1219.4 | 1214.89 | 1210.4 | 1389 | 1375.6 | 1362.3 | 1349.2 | 1336.3
x1 = 0.514 | 1263.52 | 1258.71 | 1254.64 | 1250.22 | 1245.81 | 1402 | 1389.2 | 1376.5 | 1363.8 | 1351.2
x1 = 0.6186 | 1294.95 | 1290.95 | 1286.59 | 1282.25 | 1277.92 | 1413.5 | 1401 | 1388.7 | 1376.5 | 1364.4
x1 = 0.7285 | 1320.82 | 1316.59 | 1312.32 | 1308.06 | 1303.82 | 1423.9 | 1411.8 | 1399.9 | 1388 | 1376.2
x1 = 0.7886 | 1332.55 | 1328.3 | 1324.05 | 1319.81 | 1315.59 | 1427.9 | 1415.9 | 1404.1 | 1392.4 | 1380.8
x1 = 0.8925 | 1350.78 | 1346.33 | 1342.2 | 1338.05 | 1333.89 | 1436.5 | 1424.5 | 1412.6 | 1401 | 1389.5
x1 = 1 | 1366.66 | 1362.4 | 1358.3 | 1354.19 | 1350.08 | 1442.4 | 1430.6 | 1419 | 1407.5 | 1396.3

CC#N [acetonitrile]
[2]
Details | mass density [kg/m3] | speed of sound [m/s]
298.15 K | 776.533 | 1278.6
303.15 K | 771.116 | 1258.7
308.15 K | 765.66 | 1238.7
313.15 K | 760.162 | 1218.5
318.15 K | 754.462 | 1198.3
